Measured values published in US9085555B2, “Complement pathway modulators and uses thereof” (priority 2011, dated 2015).

Target: Factor D (Homo sapiens (Human), UniProt P00746)
Assay: biochemical
Type: biochemical
Settings: read-out: IC50

Factor D, sequence (P00746 26-253): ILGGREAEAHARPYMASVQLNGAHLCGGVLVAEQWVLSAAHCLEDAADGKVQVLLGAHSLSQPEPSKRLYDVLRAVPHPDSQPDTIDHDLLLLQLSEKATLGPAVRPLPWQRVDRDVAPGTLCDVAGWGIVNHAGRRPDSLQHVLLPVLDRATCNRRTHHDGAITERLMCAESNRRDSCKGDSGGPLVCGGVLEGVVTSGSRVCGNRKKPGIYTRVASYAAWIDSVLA

Structure (SMILES)	IC50
Cc1cc2c(C(N)=O)nn(CC(=O)N3C[C@H](F)C[C@H]3C(=O)N[C@H](C)c3cccc(Cl)c3F)c2cn1 [Example 691, 1-(2-{(2S,4R)-2-[(R)-1-(3-Chloro-2-fluoro-phenyl)-ethylcarbamoyl]-4-fluoro-pyrrolidin-1-yl}-2-oxo-ethyl)-5-methyl-1H-pyrazolo[3,4-c] pyridine-3-carboxylic acid amide]	68 nM
NC(=O)c1nn(CC(=O)N2[C@@H]3C[C@@H]3C[C@H]2C(=O)NCc2cccc(Cl)c2F)c2ccccc12 [Example 692, 1-{2-[(1R,3S,5R)-3-(3-Chloro-2-fluoro-benzylcarbamoyl)-2-aza-bicyclo[3.1.0]hex-2-yl]-2-oxo-ethyl}-1H-indazole-3-carboxylic acid amide]	3 nM
Cc1nccc2c(C(N)=O)nn(CC(=O)N3[C@@H]4C[C@@H]4C[C@H]3C(=O)N[C@H](C)c3cccc(Cl)c3F)c12 [Example 693, 1-(2-{(1R,3S,5R)-3-[(R)-1-(3-Chloro-2-fluoro-phenyl)-ethylcarbamoyl]-2-aza-bicyclo[3.1.0]hex-2-yl}-2-oxo-ethyl)-7-methyl-1H-pyrazolo[3,4-c]pyridine-3-carboxylic acid amide]	6 nM
Cc1nccc2c(C(N)=O)nn(CC(=O)N3[C@@H]4C[C@@H]4C[C@H]3C(=O)NCc3cccc(Cl)c3F)c12 [Example 694, 1-{2-[(1R,3S,5R)-3-(3-Chloro-2-fluoro-benzylcarbamoyl)-2-aza-bicyclo[3.1.0]hex-2-yl]-2-oxo-ethyl}-7-methyl-1H-pyrazolo[3,4-c]pyridine-3-carboxylic acid amide]	17 nM
Cc1cc2c(C(N)=O)nn(CC(=O)N3[C@@H]4C[C@@H]4C[C@H]3C(=O)NCc3cccc(Cl)c3F)c2c(C)n1 [Example 695, 1-{2-[(1R,3S,5R)-3-(3-Chloro-2-fluoro-benzylcarbamoyl)-2-aza-bicyclo[3.1.0]hex-2-yl]-2-oxo-ethyl}-5,7-dimethyl-1H-pyrazolo[3,4-c]pyridine-3-carboxylic acid amide]	15 nM
Cc1cc2c(C(N)=O)nn(CC(=O)N3[C@@H]4C[C@@H]4C[C@H]3C(=O)N[C@H](C)c3cccc(Cl)c3F)c2c(C)n1 [Example 696, 1-(2-{(1R,3S,5R)-3-[(R)-1-(3-Chloro-2-fluoro-phenyl)-ethylcarbamoyl]-2-aza-bicyclo[3.1.0]hex-2-yl}-2-oxo-ethyl)-5,7-dimethyl-1H-pyrazolo[3,4-c]pyridine-3-carboxylic acid amide]	101 nM
CCc1cc2c(C(N)=O)nn(CC(=O)N3C[C@H](F)[C@@H](OC)[C@H]3C(=O)NCc3cccc(Cl)c3F)c2cn1 [Example 697, 1-{2-[(2S,3S,4S)-2-(3-Chloro-2-fluoro-benzylcarbamoyl)-4-fluoro-3-methoxy-pyrrolidin-1-yl]-2-oxo-ethyl}-5-ethyl-1H-pyrazolo[3,4-c]pyridine-3-carboxylic acid amide]	3 nM
C[C@@H](NC(=O)[C@@H]1C[C@H]2C[C@H]2N1C(=O)Cn1nc(C(N)=O)c2cc(C(F)(F)F)ncc21)c1cccc(Cl)c1F [Example 699, 1-(2-{(1R,3S,5R)-3-[(R)-1-(3-Chloro-2-fluoro-phenyl)-ethylcarbamoyl]-2-aza-bicyclo[3.1.0]hex-2-yl}-2-oxo-ethyl)-5-trifluoromethyl-1H-pyrazolo[3,4-c]pyridine-3-carboxylic acid amide]	118 nM
NC(=O)c1nn(CC(=O)N2[C@@H]3C[C@@H]3C[C@H]2C(=O)NCc2cccc(Cl)c2F)c2cnc(C3CC3)cc12 [Example 700, 1-{2-[(1R,3S,5R)-3-(3-Chloro-2-fluoro-benzylcarbamoyl)-2-aza-bicyclo[3.1.0]hex-2-yl]-2-oxo-ethyl}-5-cyclopropyl-1H-pyrazolo[3,4-c]pyridine-3-carboxylic acid amide]	6 nM
C[C@@H](NC(=O)[C@@H]1C[C@H]2C[C@H]2N1C(=O)Cn1nc(C(N)=O)c2cc(C3CC3)ncc21)c1cccc(Cl)c1F [Example 701, 1-(2-{(1R,3S,5R)-3-[(R)-1-(3-Chloro-2-fluoro-phenyl)-ethylcarbamoyl]-2-aza-bicyclo[3.1.0]hex-2-yl}-2-oxo-ethyl)-5-cyclopropyl-1H-pyrazolo[3,4-c]pyridine-3-carboxylic acid amide]	15 nM
NC(=O)c1nn(CC(=O)N2[C@@H]3C[C@@H]3C[C@H]2C(=O)NCc2cccc(Cl)c2F)c2cnccc12 [Example 703, 1-(2-((1R,3S,5R)-3-((3-Chloro-2-fluorobenzyl)carbamoyl)-2-azabicyclo[3.1.0]hexan-2-yl)-2-oxoethyl)-1H-pyrazolo[3,4-c]pyridine-3-carboxamide]	10 nM
CC(=O)c1cn(CC(=O)N2[C@@H]3C[C@@H]3C[C@H]2C(=O)NCc2cccc(Cl)c2F)c2nc(C(=O)O)ccc12 [Example 704, 3-Acetyl-1-{2-[(1R,3S,5R)-3-(3-chloro-2-fluoro-benzylcarbamoyl)-2-aza-bicyclo[3.1.0]hex-2-yl]-2-oxo-ethyl}-1H-pyrrolo[2,3-b]pyridine-6-carboxylic acid]	23 nM
NC(=O)c1nn(CC(=O)N2[C@@H]3C[C@@H]3C[C@H]2C(=O)NCc2cccc(Cl)c2F)c2c[n+]([O-])ccc12 [Example 705, 3-Carbamoyl-1-(2-((1R,3S,5R)-3-(3-chloro-2-fluorobenzylcarbamoyl)-2-azabicyclo[3.1.0]hexan-2-yl)-2-oxoethyl)-1H-pyrazolo[3,4-c]pyridine 6-oxide]	21 nM
C[C@@H](NC(=O)[C@@H]1C[C@H]2C[C@H]2N1C(=O)Cn1nc(C(N)=O)c2cc[n+]([O-])cc21)c1cccc(Cl)c1F [Example 706, 3-Carbamoyl-1-(2-((1R,3S,5R)-3-((R)-1-(3-chloro-2-fluorophenyl)ethyl-carbamoyl)-2-azabicyclo[3.1.0]hexan-2-yl)-2-oxoethyl)-1H-pyrazolo[3,4-c]pyridine 6-oxide]	45 nM
NC(=O)c1nn(CC(=O)N2[C@@H]3C[C@@H]3C[C@H]2C(=O)Nc2cccc(OC(F)(F)F)c2F)c2ccccc12 [Example 707, 1-{2-[(1R,3S,5R)-3-(2-Fluoro-3-trifluoromethoxy-phenylcarbamoyl)-2-aza-bicyclo[3.1.0]hex-2-yl]-2-oxo-ethyl}-1H-indazole-3-carboxylic acid amide]	88 nM
NC(=O)c1nn(CC(=O)N2C[C@H](F)C[C@H]2C(=O)Nc2cccc(OC(F)(F)F)c2F)c2ccccc12 [Example 708]	54 nM
NC(=O)c1nn(CC(=O)N2[C@@H]3C[C@@H]3C[C@H]2C(=O)Nc2cccc(OC(F)(F)F)c2F)c2ccncc12 [Example 709, 1-(2-((1R,3S,5R)-3-(2-fluoro-3-(trifluoromethoxy)phenylcarbamoyl)-2-azabicyclo[3.1.0]hexan-2-yl)-2-oxoethyl)-1H-pyrazolo[4,3-c] pyridine-3-carboxamide]	144 nM
COC(=O)c1ccc2c(C(C)=O)nn(CC(=O)N3[C@@H]4C[C@@H]4C[C@H]3C(=O)Nc3cccc(OC(F)(F)F)c3F)c2c1 [Example 710, Methyl 3-acetyl-1-(2-((1R,3S,5R)-3-(2-fluoro-3-(trifluoromethoxy)phenylcarbamoyl)-2-azabicyclo [3.1.0]hexan-2-yl)-2-oxoethyl)-1H-indazole-6-carboxylate]	52 nM
CC(=O)c1nn(CC(=O)N2[C@@H]3C[C@@H]3C[C@H]2C(=O)Nc2cccc(OC(F)(F)F)c2F)c2ncccc12 [Example 711, (1R,3S,5R)-2-[2-(3-Acetyl-pyrazolo[3,4-b]pyridin-1-yl)-acetyl]-2-aza-bicyclo[3.1.0]hexane-3-carboxylic acid (2-fluoro-3-trifluoromethoxy-phenyl)-amide]	71 nM
CCc1cc2c(C(N)=O)nn(CC(=O)N3[C@@H]4C[C@@H]4C[C@H]3C(=O)Nc3cccc(OC(F)(F)F)c3F)c2cn1 [Example 712, 5-Ethyl-1-{2-[(1R,3S,5R)-3-(2-fluoro-3-trifluoromethoxy-phenylcarbamoyl)-2-aza-bicyclo[3.1.0]hex-2-yl]-2-oxo-ethyl}-1H-pyrazolo[3,4-c]pyridine-3-carboxylic acid amide]	38 nM
Cc1cc2c(cn1)c(C(N)=O)nn2CC(=O)N1[C@@H]2C[C@@H]2C[C@H]1C(=O)Nc1cccc(OC(F)(F)F)c1F [Example 713, 1-{2-[(1R,3S,5R)-3-(2-Fluoro-3-trifluoromethoxy-phenylcarbamoyl)-2-aza-bicyclo[3.1.0]hex-2-yl]-2-oxo-ethyl}-6-methyl-1H-pyrazolo[4,3-c]pyridine-3-carboxylic acid amide]	260 nM
COc1cc2c(C(N)=O)nn(CC(=O)N3[C@@H]4C[C@@H]4C[C@H]3C(=O)Nc3cccc(OC(F)(F)F)c3F)c2cn1 [Example 714, 1-{2-[(1R,3S,5R)-3-(2-Fluoro-3-trifluoromethoxy-phenylcarbamoyl)-2-aza-bicyclo[3.1.0]hex-2-yl]-2-oxo-ethyl}-5-methoxy-1H-pyrazolo[3,4-c]pyridine-3-carboxylic acid amide]	300 nM
CCc1cc2c(C(N)=O)nn(CC(=O)N3C[C@H](F)C[C@H]3C(=O)Nc3cccc(OC(F)(F)F)c3F)c2cn1 [Example 715, 5-Ethyl-1-{2-[(2S,4R)-4-fluoro-2-(2-fluoro-3-trifluoromethoxy-phenylcarbamoyl)-pyrrolidin-1-yl]-2-oxo-ethyl}-1H-pyrazolo[3,4-c]pyridine-3-carboxylic acid amide]	27 nM
Cc1nccc2c(C(N)=O)nn(CC(=O)N3[C@@H]4C[C@@H]4C[C@H]3C(=O)Nc3cccc(OC(F)(F)F)c3F)c12 [Example 716, 1-{2-[(1R,3S,5R)-3-(2-Fluoro-3-trifluoromethoxy-phenylcarbamoyl)-2-aza-bicyclo[3.1.0]hex-2-yl]-2-oxo-ethyl}-7-methyl-1H-pyrazolo[3,4-c]pyridine-3-carboxylic acid amide]	46 nM
Cc1cc2c(C(N)=O)nn(CC(=O)N3[C@@H]4C[C@@H]4C[C@H]3C(=O)Nc3cccc(OC(F)(F)F)c3F)c2c(C)n1 [Example 717, 1-{2-[(1R,3S,5R)-3-(2-Fluoro-3-trifluoromethoxy-phenylcarbamoyl)-2-aza-bicyclo[3.1.0]hex-2-yl]-2-oxo-ethyl}-5,7-dimethyl-1H-pyrazolo [3,4-c]pyridine-3-carboxylic acid amide]	31 nM
